Data reported in ChEMBL document CHEMBL1201862, “PubChem BioAssay data set” (2004).
Calls of active or inactive are those of the source.

Legend:
[1] = target: T1, Rac GTPase-activating protein 1 (Homo sapiens, UniProt Q9H0H5); experiment: blockers of MgcRacGAP-driven Rac1 GTP hydrolysis – biochemical, ADP Hunter fluorescence, primary and confirmatory, confirmation (AID 624330); type: functional
T1 sequence (Q9H0H5 whole entry): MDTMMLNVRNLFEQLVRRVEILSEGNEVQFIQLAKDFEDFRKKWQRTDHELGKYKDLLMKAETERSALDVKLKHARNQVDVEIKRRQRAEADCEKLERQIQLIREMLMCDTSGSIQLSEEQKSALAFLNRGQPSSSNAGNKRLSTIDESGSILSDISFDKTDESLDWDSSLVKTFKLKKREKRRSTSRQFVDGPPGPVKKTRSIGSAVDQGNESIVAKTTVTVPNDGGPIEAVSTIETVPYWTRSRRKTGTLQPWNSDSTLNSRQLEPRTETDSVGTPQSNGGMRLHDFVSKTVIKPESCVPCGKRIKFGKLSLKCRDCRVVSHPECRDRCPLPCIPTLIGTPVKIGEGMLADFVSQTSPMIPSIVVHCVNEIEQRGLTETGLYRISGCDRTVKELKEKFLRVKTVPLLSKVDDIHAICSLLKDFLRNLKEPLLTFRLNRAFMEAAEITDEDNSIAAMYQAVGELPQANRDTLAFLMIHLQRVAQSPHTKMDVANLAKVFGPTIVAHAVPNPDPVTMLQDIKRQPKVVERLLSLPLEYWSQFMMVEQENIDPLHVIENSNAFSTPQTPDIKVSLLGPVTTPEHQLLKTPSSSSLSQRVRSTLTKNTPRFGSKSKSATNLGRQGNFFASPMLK

[2] = Fluorescence-based cell-based high throughput dose response assay for inhibitors of the interaction of nucleotide-binding oligomerization domain containing 2 (NOD2) and the receptor-interacting serine-threonine kinase 2 (RIPK2).; type: functional; details: Homo sapiens
[3] = viability loss in HeLa cells – cytotoxicity control for MgcRacGAP inhibitor project, dose response (AID 624300); type: functional
[4] = off-target signal loss in HeLa-CEM21 co-culture – HeLa F-luc CTL cells, cherry-picked, counter-screen for HIV-1 Env fusion inhibitor project, dose response (AID 652040); type: functional, cell-based;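 also: potency for signal decrease marking cytotoxic or nonspecific inhibition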
[5] = HIV-1 AD8 envelope cell-cell fusion blockers – cherry-pick, dose response (AID 652062); type: functional, cell-based;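 also: luciferase signal from cell-cell fusion driven by HIV-1 clade B AD8 Env; potency is for inhibitors of fusion seen as a drop in luminescence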
[6] = viability loss in CEM21 cells – cell-based, CellTiter-Glo luminescence, cherry-picked, cytotoxicity control for viral fusion inhibitor project, dose response (AID 652042); type: functional;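 also: potency for signal decrease meaning cytotoxicity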
[7] = blockers of HIV-1 ZM109 envelope-driven cell-cell fusion – HeLa effector, CEM target cells, luciferase, cherry-pick, dose response (AID 652058); type: functional, cell-based;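 also: luciferase signal from HIV-1 Env mediated cell-cell fusion of effector and target cells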
[8] = blockers of HIV-1 envelope-mediated cell-cell fusion – cherry-pick, dose response (AID 652057); type: functional, cell-based
[9] = target: Fructose-bisphosphate aldolase (Mycobacterium tuberculosis, UniProt P9WQA3); experiment: Fluorescence-based biochemical high throughput dose response assay for inhibitors of the fructose-bisphosphate aldolase (FBA) of M. tuberculosis.; type: functional
Chain of Fructose-bisphosphate aldolase (P9WQA3 whole entry): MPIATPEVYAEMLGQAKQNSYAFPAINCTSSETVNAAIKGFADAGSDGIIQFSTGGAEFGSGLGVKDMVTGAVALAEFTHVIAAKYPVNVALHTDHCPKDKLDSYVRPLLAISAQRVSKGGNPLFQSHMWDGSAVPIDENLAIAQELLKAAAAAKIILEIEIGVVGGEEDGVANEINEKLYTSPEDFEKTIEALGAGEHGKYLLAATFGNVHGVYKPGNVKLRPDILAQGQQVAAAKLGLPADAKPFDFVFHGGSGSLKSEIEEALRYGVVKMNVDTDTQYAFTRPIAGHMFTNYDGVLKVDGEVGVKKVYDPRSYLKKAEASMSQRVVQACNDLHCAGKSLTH

[10] = HGIII-sPLA2 enzyme inhibition potency – biochemical, QFRET, IC50, dose response (AID 743457);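 also: green fluorescence rise as the enzyme cleaves BODIPY PC-A2 in liposomes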
cells [11] = type: functional, cell-based
[12] = target: T2, Trace amine-associated receptor 1 (Homo sapiens, UniProt Q96RJ0); experiment: Counterscreen for agonists of the human trace amine associated receptor 1 (hTAAR1): Fluorescence-based cell-based high throughput dose response assay to identify hTAAR1 agonist that also desensitize TAAR1 receptor response.; type: functional
T2 sequence (Q96RJ0 whole entry): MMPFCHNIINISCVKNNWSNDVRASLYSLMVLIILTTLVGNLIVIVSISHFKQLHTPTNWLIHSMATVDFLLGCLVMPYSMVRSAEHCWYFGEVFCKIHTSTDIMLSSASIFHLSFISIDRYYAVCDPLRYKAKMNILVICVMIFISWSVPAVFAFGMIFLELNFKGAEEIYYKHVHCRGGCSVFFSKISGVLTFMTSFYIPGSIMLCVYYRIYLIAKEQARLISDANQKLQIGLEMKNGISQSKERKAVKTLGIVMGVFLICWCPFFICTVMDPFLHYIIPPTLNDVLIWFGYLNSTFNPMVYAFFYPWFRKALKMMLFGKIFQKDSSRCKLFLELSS

cells [13] = type: functional, cell-based; remark: listed apart in the source
[14] = target: T2, Trace amine-associated receptor 1; experiment: Fluorescence-based cell-based high throughput dose response assay to identify agonists of the human trace amine associated receptor 1 (TAAR1).; type: functional
CHO-K1 = experiment: Counterscreen for antagonists of the orexin 1 receptor (OX1R; HCRTR1): Homogeneous time resolved fluorescence (HTRF)-based cell-based dose response assay to identify antagonists of the parental CHO-K1 cell line. [Related pubchem assays (depositor defined):AID434989, AID435008, AID463079, AID485270, AID492963, AID492964, AID492965, AID493232, AID504699, AID504701]; type: functional; details: Cricetulus griseus;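 also: potency for inhibition of ATP-stimulated IP1 production as antagonists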
INS1 = experiment: INS-1E survival protection against cytokine death – cell-based, luminescence, retest, dose response (AID 449756); type: functional; details: Rattus norvegicus;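 also: cell death triggered by IL-1 beta plus TNF-alpha plus IFN-gamma mixture; protective hits raise ATP signal compared with cytokine alone wells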
Insulin-degrading enzyme [15] = target: T3, Insulin-degrading enzyme (Homo sapiens, UniProt P14735); experiment: recombinant IDE activation, cell-free – biochemical, fluorescence polarization, counter-screen for IDE activator project, dose response (AID 588681)
T3 sequence (P14735 whole entry): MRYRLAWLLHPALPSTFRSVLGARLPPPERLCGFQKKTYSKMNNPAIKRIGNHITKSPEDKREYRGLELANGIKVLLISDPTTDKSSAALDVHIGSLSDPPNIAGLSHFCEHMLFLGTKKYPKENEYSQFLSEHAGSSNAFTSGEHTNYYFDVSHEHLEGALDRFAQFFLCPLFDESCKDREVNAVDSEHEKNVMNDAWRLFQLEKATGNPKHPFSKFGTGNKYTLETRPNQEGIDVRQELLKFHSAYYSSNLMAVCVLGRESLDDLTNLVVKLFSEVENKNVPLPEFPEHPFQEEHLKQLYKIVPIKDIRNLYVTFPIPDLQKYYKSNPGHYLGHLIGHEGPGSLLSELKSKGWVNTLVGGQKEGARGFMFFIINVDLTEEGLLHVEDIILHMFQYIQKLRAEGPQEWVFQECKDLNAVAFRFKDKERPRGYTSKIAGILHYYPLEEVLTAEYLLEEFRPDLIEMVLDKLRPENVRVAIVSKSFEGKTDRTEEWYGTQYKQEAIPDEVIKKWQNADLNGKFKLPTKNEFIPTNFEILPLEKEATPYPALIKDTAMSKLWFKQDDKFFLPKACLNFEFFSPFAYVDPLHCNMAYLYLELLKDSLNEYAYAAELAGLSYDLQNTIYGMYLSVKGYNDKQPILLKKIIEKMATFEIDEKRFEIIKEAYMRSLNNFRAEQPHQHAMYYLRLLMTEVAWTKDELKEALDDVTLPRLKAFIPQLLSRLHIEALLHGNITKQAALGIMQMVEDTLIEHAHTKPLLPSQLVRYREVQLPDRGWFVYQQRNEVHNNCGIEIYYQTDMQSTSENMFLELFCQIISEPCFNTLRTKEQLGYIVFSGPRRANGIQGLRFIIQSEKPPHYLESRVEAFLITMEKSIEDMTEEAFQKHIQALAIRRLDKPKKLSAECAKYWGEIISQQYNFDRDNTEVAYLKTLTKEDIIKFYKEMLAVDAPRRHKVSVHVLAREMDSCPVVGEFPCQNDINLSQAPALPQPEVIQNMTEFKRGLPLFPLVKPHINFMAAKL

X-box-binding protein 1 = target: T4, X-box-binding protein 1 (Homo sapiens, UniProt P17861); type: functional, Cricetulus griseus;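 also: confirmatory dose-response counter-screen serving a CHOP assay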
T4 sequence (P17861 whole entry): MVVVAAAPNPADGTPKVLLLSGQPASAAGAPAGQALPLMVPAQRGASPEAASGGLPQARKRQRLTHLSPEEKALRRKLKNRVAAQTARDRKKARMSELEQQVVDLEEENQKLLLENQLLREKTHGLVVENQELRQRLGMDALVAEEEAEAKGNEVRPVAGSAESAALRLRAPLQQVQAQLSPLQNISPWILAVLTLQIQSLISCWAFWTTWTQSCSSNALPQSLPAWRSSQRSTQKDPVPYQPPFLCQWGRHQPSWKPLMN

[16] = target: T5, Orexin/Hypocretin receptor type 1 (Homo sapiens, UniProt O43613); experiment: Fluorescence-based cell-based high throughput dose response assay for antagonists of the orexin 1 receptor (OX1R; HCRTR1). [Related pubchem assays (depositor defined):AID434989, AID435008, AID463079, AID485270, AID492963, AID492964, AID492965, AID493232, AID504717, AID504718]; type: functional
T5 sequence (O43613 whole entry): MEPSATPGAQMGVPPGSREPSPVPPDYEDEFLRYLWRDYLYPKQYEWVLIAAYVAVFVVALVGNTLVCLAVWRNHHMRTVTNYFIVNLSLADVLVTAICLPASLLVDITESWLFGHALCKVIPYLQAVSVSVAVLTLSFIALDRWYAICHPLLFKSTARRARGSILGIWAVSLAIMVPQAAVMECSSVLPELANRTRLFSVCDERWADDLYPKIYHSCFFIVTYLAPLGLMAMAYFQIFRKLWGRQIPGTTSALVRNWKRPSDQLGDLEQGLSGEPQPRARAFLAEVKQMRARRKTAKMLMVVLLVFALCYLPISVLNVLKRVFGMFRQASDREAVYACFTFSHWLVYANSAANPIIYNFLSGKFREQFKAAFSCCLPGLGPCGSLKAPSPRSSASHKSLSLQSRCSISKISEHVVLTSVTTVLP

[17] = Counterscreen for antagonists of the orexin 1 receptor (OX1R; HCRTR1): Fluorescence-based cell-based high throughput dose response assay to identify antagonists of the parental CHO cell line. [Related pubchem assays (depositor defined):AID434989, AID435008, AID463079, AID485270, AID492963, AID492964, AID492965, AID493232, AID504699, AID504701]; type: functional
HEK293 [18] = experiment: membrane integrity loss in HEK cells – cell-based, fluorescence, cytotoxicity control for IDE activator project, dose response (AID 588440); type: functional; details: Homo sapiens;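 also: cytotoxicity by LDH release measuring loss of membrane integrity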
Orexin receptor type 2 [19] = target: T6, Orexin receptor type 2 (Homo sapiens, UniProt O43614); experiment: Counterscreen assay for antagonists of the orexin 1 receptor (OX1R; HCRTR1): Homogeneous Time Resolved Fluorescence (HTRF)-based cell-based dose response assay for antagonists of the orexin 2 receptor (OX2R; HCRTR2), run by assay provider.; type: functional
T6 sequence (O43614 whole entry): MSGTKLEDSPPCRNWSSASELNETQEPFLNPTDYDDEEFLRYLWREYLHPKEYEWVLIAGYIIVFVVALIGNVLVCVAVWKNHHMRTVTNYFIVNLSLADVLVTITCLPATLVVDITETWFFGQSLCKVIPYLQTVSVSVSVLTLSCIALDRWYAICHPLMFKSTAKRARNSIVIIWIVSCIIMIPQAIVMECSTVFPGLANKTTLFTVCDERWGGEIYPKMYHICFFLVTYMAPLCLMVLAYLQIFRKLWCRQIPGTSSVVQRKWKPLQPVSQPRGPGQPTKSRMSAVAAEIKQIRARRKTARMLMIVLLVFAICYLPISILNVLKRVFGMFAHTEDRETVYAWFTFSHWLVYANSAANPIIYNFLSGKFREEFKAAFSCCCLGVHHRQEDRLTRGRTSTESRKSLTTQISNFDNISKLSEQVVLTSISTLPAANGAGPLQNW

HEK293 [20] = experiment: optical interference in Abeta FP readout, dose response, artefact control for IDE activator project, biochemical, fluorescence polarization (AID 588442); type: functional, cell-based; details: Homo sapiens
[21] = target: T5, Orexin/Hypocretin receptor type 1; experiment: Homogeneous Time Resolved Fluorescence (HTRF)-based cell-based high throughput dose response assay for antagonists of the orexin 1 receptor (OX1R; HCRTR1). [Related pubchem assays (depositor defined):AID434989, AID435008, AID463079, AID485270, AID492963, AID492964, AID492965, AID493232, AID504717, AID504718]; type: functional
Insulin-degrading enzyme [22] = target: T3, Insulin-degrading enzyme; experiment: cellular IDE activation of Abeta substrate cleavage – fluorescence polarization, HEK cells, dose response (AID 588439); type: functional, cell-based
Orexin receptor type 2 [23] = target: T6, Orexin receptor type 2; experiment: Counterscreen assay for antagonists of the orexin 1 receptor (OX1R; HCRTR1): Fluorescence-based cell-based dose response assay for antagonists of the orexin 2 receptor (OX2R; HCRTR2), run by assay provider.; type: functional

CN(C)CCC(=O)N1C/C(=C/c2ccccc2)C(=O)/C(=C\c2ccccc2)C1
active: IC50 [1] 167 µM | IC50 [2] 3.78 µM | CC50 [3] 25 µM

Cn1c(NCc2c(O)ccc3ccccc23)nc2ccccc21
active: AC50 [4] 40.6 µM | AC50 [5] 28.9 µM | AC50 [6] 58.1 µM | AC50 [7] 22.1 µM | AC50 [8] 15.4 µM

Cc1ccc(-n2nc3ccc(N)cc3n2)cc1C
active: IC50 [9] 0.895 µM

CCN(CC)c1ccc(-c2nnc(S)n2-c2ccccc2)cc1
inactive: IC50 [10] > 122 µM

CC(C)=C1C2CCC1C(C(=O)NCCc1ccccc1)C2C(=O)O (stereo not drawn)
inactive: EC50 (cells [11]) > 29.9 µM | IC50 (cells [13]) > 29.9 µM
active: IC50 [12] 2.42 µM | EC50 [14] 0.189 µM

CCCCC(=O)Nc1ccc(C(=O)NNC(=S)NC(=O)c2cccs2)cc1
inactive: IC50 [10] 63.5 µM

Cn1c(/C=N/n2cnnc2)nc2ccccc21
active: IC50 [9] 1.54 µM

COc1ccc(OCc2n(CC(=O)OC3CC(C)CCC3C(C)C)c3ccccc3[n+]2C)cc1.[Cl-] (stereo not drawn)
inactive: IC50 (CHO-K1) > 66.2 µM | EC50 (Insulin-degrading enzyme [15]) > 54.7 µM | IC50 [17] 15.3 µM | IC50 (HEK293 [18]) 17 µM | IC50 (Orexin receptor type 2 [19]) > 50 µM | EC50 (HEK293 [20]) > 54.7 µM | IC50 [21] 63.1 µM | EC50 (Insulin-degrading enzyme [22]) 15.5 µM
10 µM: Absolute IC50 (XBP1) (X-box-binding protein 1)
active: AC50 [4] 17.2 µM | AC50 (INS1) 3.9 µM | IC50 [16] 8.69 µM | AC50 [5] 11 µM | AC50 [6] 9.49 µM | AC50 [7] 16.4 µM | IC50 (Orexin receptor type 2 [23]) 8.9 µM | AC50 [8] 9.99 µM
